Earlier results, collected in patent US20040002079A1.

Conditions: steady state, red cells vs plasma, different individuals

In the case of `[Li]` [lithium, Lithium], the “lithium ratio [Li]cell/[Li]pl” value is given as 0.2 to 0.8.
